The assay concerns the target T1, MAP4K1 (HPK1) (Homo sapiens, UniProt Q92918).
T1 construct: purchased Invitrogen
Briefly: Inhibition of MAP4K1 biochemical enzymatic activity (EZReader 2 electrophoretic mobility shift). As to conditions: HPK1 (Invitrogen), S6K2tide 1.5 μM, 120 min; ATP 26 μM or 1000 μM (not given). An excerpt: MAP4K1 (HPK1) and relevant off-target enzymatic activity was monitored using the Perkin Elmer electrophoretic mobility shift technology platform—the EZReader 2. […] Within the linear, steady-state phase of the kinase enzymatic reaction, the mixed pool of phosphorylated (product) and non-phosphorylated (substrate) peptides was passed through the microfluidic system of the PerkinElmer EZ Reader 2, under an applied electric potential difference. The presence of the phosphate group on the product peptide provided a difference in mass and charge between that of the substrate peptide, resulting in a separation of the substrate and product pools in the sample (Perrin et al. 2010). As the product and substrate peptide mixture passes the lasers within the instrument, these pools are detected (λex=488 nm, λem=568 nm) and resolved as separate peaks. The ratio between these peaks reflects the activity of the compound at that concentration, in that well, under those conditions.
Inhibitors were dissolved in 100% DMSO at a stock concentration of 10 mM. A 100×, 10-point, 4-fold serial dilution of each inhibitor was created in 100% DMSO either manually or on a Hamilton STAR liquid handler, starting at a relevant concentration, usually 1 mM. A volume of 0.130 μL of each concentration was transferred to the relevant wells of a 384-well plate (Greiner 781 201) in duplicate using a TTPLabtech Mosquito nano-litre dispenser. Using a Multidrop Combi, the remaining constituents of the kinase reaction were added to the 130 nL of dosed compound as follows (see table below for final reaction details):
Enzyme activity assays at the ^APPKM for ATP or 1 mM ATP: In each well of a 384-well plate, 0.1-15 nM of untreated enzyme was incubated in a total of 13 μL of buffer (100 mM HEPES pH 7.5, 0.015% Brij 35, 10 mM MgCl2, 1 mM DTT) with 1.5 μM fluorescent peptid and 20-1000 μM ATP, at 25° C., for 60-180 minutes in the presence or absence of a dosed concentration series of compound (1% DMSO final concentration). The kinase reactions were stopped by the addition of 70 μl of Stop buffer (100 mM HEPES pH 7.5, 0.015% Brij 35, 35 mM EDTA and 0.2% of Coating Reagent 3 (Caliper Lifesciences)). The plates were read on a Caliper EZReader 2 as described above.
(In general: In EMSA bound probe runs differently from free probe, usually more slowly.)

From patent publication US12202844B2, “MAP4K1 inhibitors” (Blueprint Medicines Corporation, priority 2021, dated 2025) come the findings set out here.

T1 sequence (Q92918 whole entry): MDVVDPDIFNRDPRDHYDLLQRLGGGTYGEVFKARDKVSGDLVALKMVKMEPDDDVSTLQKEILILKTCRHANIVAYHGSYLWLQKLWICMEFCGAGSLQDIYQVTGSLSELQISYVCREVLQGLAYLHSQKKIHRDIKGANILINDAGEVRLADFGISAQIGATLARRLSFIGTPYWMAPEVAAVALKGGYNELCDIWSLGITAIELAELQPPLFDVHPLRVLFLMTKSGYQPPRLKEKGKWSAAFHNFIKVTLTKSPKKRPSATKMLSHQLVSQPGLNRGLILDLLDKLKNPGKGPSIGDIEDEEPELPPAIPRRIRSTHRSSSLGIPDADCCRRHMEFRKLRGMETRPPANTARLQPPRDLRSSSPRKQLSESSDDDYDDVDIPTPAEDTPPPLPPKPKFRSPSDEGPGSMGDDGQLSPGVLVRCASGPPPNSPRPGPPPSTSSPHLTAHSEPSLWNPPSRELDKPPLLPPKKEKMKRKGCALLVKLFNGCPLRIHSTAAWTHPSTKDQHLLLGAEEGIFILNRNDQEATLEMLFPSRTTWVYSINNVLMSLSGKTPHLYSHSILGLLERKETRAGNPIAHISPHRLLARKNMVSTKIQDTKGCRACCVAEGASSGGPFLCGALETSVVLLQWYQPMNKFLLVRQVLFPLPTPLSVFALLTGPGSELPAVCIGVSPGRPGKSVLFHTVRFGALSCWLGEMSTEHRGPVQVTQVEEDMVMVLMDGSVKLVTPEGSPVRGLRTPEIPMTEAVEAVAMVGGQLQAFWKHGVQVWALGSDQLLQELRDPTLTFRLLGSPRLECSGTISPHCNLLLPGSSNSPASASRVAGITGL

For orientation: IC50 means the concentration at which inhibition is half-maximal. For `C[C@@H]1COC(=O)c2ccc(Nc3cc4c(C(C)(C)N)cnc(O[C@H]5C[C@@H](S(C)(=O)=O)C5)c4cn3)nc21` (single isomer, unassigned) [Compound 5], the IC50 stood at 1.77 nM.
For `CC[C@@](C)(N)c1cnc(O[C@H]2C[C@@H](S(C)(=O)=O)C2)c2cnc(Nc3ccc4c(n3)[C@H](C)COC4=O)cc12` (single isomer, unassigned) [Compound 8], the IC50 was 0.31 nM.
For the molecule `CC[C@@](C)(N)c1cnc(O[C@H]2C[C@@H](S(C)(=O)=O)C2)c2cnc(Nc3ccc4c(n3)[C@H](C)COC4=O)cc12` (single isomer, unassigned) [Compound 9], the IC50 was 0.92 nM.
`C[C@@H]1OC(=O)c2ccc(Nc3cc4c(C(C)(C)N)cnc(O[C@@H](C)CCS(C)(=O)=O)c4cn3)nc2[C@H]1C` (single isomer, unassigned) [Compound 19]: the IC50 was determined as 0.9 nM.
The value for `CC[C@@](C)(N)c1cnc(OCCCS(C)(=O)=O)c2cnc(Nc3ccc4c(n3)[C@H](C)[C@H](C)OC4=O)cc12` (single isomer, unassigned) [Compound 21] was 0.18 nM; that for `C[C@H]1OC(=O)c2ccc(Nc3cc4c(C(C)(C)N)cnc(O[C@H]5C[C@@H](S(C)(=O)=O)C5)c4cn3)nc2C12CC2` (single isomer, unassigned) [Compound 24] was 0.15 nM; that for `C[C@@H]1COC(=O)c2ccc(Nc3cc4c(C(C)(C)N)cnc(O[C@H]5C[C@@H](S(=O)(=O)C6CC6)C5)c4cn3)nc21` (single isomer, unassigned) [Compound 25] was 1.53 nM.
Take `C[C@@H]1[C@@H](Oc2ncc(C(C)(C)N)c3cc(Nc4ccc5c(n4)[C@@H](C)[C@H](C)OC5=O)ncc23)C[C@H]1S(C)(=O)=O` (single isomer, unassigned) [Compound 30]: the IC50 is 0.79 nM.
`C[C@@H]1[C@@H](Oc2ncc(C(C)(C)N)c3cc(Nc4ccc5c(n4)[C@@H](C)[C@H](C)OC5=O)ncc23)C[C@H]1S(C)(=O)=O` (single isomer, unassigned) [Compound 31]: the IC50 was 0.2 nM.
For `C[C@@H]1OC(=O)c2ccc(Nc3cc4c(C(C)(C)N)cnc(O[C@@H]5CC[C@@H](S(C)(=O)=O)C5)c4cn3)nc2[C@H]1C` (single isomer, unassigned) [Compound 34], the IC50 stood at 0.56 nM.
Take `C[C@@H]1OC(=O)c2ccc(Nc3cc4c(C(C)(C)N)cnc(O[C@@H]5CC[C@@H](S(C)(=O)=O)C5)c4cn3)nc2[C@H]1C` (single isomer, unassigned) [Compound 35]: the IC50 worked out at 0.48 nM.
Regarding `C[C@@H]1c2nc(Nc3cc4c(C(C)(C)N)cnc(OC[C@H]5CCS(=O)(=O)C5)c4cn3)ccc2C(=O)OC1(C)C` (single isomer, unassigned) [Compound 36], the IC50 is 0.54 nM.
For `C[C@@H]1c2nc(Nc3cc4c(C(C)(C)N)cnc(OC[C@H]5CCS(=O)(=O)C5)c4cn3)ccc2C(=O)OC1(C)C` (single isomer, unassigned) [Compound 37], the IC50 came to 0.44 nM.
As for `C[C@@H]1OC(=O)c2ccc(Nc3cc4c(C(C)(C)N)cnc(O[C@@H]5CC[C@H](S(C)(=O)=O)C5)c4cn3)nc2[C@H]1C` (single isomer, unassigned) [Compound 40], the IC50 was determined as 0.86 nM.
Consider `C[C@@H]1OC(=O)c2ccc(Nc3cc4c(C(C)(C)N)cnc(O[C@@H]5CC[C@H](S(C)(=O)=O)C5)c4cn3)nc2[C@H]1C` (single isomer, unassigned) [Compound 41], for which the IC50 is 0.68 nM.
The value for `CC[C@@](C)(N)c1cnc(OCCCS(C)(=O)=O)c2cnc(Nc3ccc4c(n3)C3(CC3)[C@H](C)OC4=O)cc12` (single isomer, unassigned) [Compound 43] was 0.12 nM; that for `C[C@H](CCS(C)(=O)=O)Oc1ccc(C(C)(C)N)c2cc(Nc3ccc4c(n3)[C@@H](C)C(C)(C)OC4=O)ncc12` (single isomer, unassigned) [Compound 45] was 0.2 nM; that for `C[C@H](CCS(C)(=O)=O)Oc1ccc(C(C)(C)N)c2cc(Nc3ccc4c(n3)[C@@H](C)C(C)(C)OC4=O)ncc12` (single isomer, unassigned) [Compound 46] was 0.71 nM.
Under `C[C@H](CCS(C)(=O)=O)Oc1ncc(C(C)(C)N)c2cc(Nc3ccc4c(n3)[C@@H](C)C(C)(C)OC4=O)ncc12` (single isomer, unassigned) [Compound 54] stands 0.82 nM; under `CC[C@@](C)(N)c1cnc(OCCCS(C)(=O)=O)c2cnc(Nc3ccc4c(n3)C(C)(C)[C@H](C)OC4=O)cc12` (single isomer, unassigned) [Compound 56], 0.21 nM; under `CC[C@@](C)(N)c1cnc(O[C@H]2C[C@@H](S(C)(=O)=O)C2)c2cnc(Nc3ccc4c(n3)C3(CC3)[C@@H](C)OC4=O)cc12` (single isomer, unassigned) [Compound 58], 0.1 nM.
On to `C[C@H]1[C@H](Oc2ncc(C(C)(C)N)c3cc(Nc4ccc5c(n4)[C@@H](C)C(C)(C)OC5=O)ncc23)C[C@@H]1S(C)(=O)=O` (single isomer, unassigned) [Compound 68], for which the half-maximal inhibitory concentration (IC50) came out at 0.51 nM.
Regarding `C[C@@H]1[C@H](S(C)(=O)=O)C[C@H]1Oc1ncc(C(C)(C)N)c2cc(Nc3ccc4c(n3)[C@@H](C)C(C)(C)OC4=O)ncc12` (single isomer, unassigned) [Compound 70], the IC50 worked out at 0.23 nM.
The value for `C[C@@H]1[C@H](S(C)(=O)=O)C[C@H]1Oc1ncc(C(C)(C)N)c2cc(Nc3ccc4c(n3)[C@@H](C)C(C)(C)OC4=O)ncc12` (single isomer, unassigned) [Compound 71] was 0.28 nM.
Take `CC[C@@H](CCS(C)(=O)=O)Oc1ncc([C@](C)(N)CC)c2cc(Nc3ccc4c(n3)[C@@H](C)[C@H](C)OC4=O)ncc12` (single isomer, unassigned) [Compound 83]: the IC50 worked out at 0.92 nM.
Take `CC[C@@H](CCS(C)(=O)=O)Oc1ncc([C@](C)(N)CC)c2cc(Nc3ccc4c(n3)[C@@H](C)[C@H](C)OC4=O)ncc12` (single isomer, unassigned) [Compound 84]: the IC50 was 0.74 nM.
For `CC[C@@](C)(N)c1cnc(O[C@H](C)CCS(C)(=O)=O)c2cnc(Nc3ccc4c(n3)C(C)(C)[C@H](C)OC4=O)cc12` (single isomer, unassigned) [Compound 96], the IC50 came out at 0.77 nM.
With `CC[C@@](C)(N)c1cnc(O[C@@H](C)CCS(C)(=O)=O)c2cnc(Nc3ccc4c(n3)C(C)(C)[C@H](C)OC4=O)cc12` (single isomer, unassigned) [Compound 97], the IC50 worked out at 2.11 nM.
For the molecule `CCS(=O)(=O)[C@H]1C[C@@H](Oc2ncc([C@H](N)C3CC3)c3cc(Nc4ccc5c(n4)[C@@H](C)C(C)(C)OC5=O)ncc23)C1` (single isomer, unassigned) [Compound 101], the IC50 is 0.48 nM.
As for `CC[C@@](C)(N)c1cnc(O[C@@H](C)CCS(=O)(=O)C2CC2)c2cnc(Nc3ccc4c(n3)[C@@H](C)[C@H](C)OC4=O)cc12` (single isomer, unassigned) [Compound 106], the IC50 turned out to be 0.22 nM.
Under `CC[C@@](C)(N)c1cnc(O[C@@H](C)CCS(=O)(=O)C2CC2)c2cnc(Nc3ccc4c(n3)[C@@H](C)[C@H](C)OC4=O)cc12` (single isomer, unassigned) [Compound 107] stands 0.26 nM; under `C[C@H](C[C@@H](C)S(C)(=O)=O)Oc1ncc([C@@](C)(N)C2CC2)c2cc(Nc3ccc4c(n3)CC(C)(C)OC4=O)ncc12` (single isomer, unassigned) [Compound 108], 0.22 nM.
As for `C[C@H](C[C@@H](C)S(C)(=O)=O)Oc1ncc([C@@](C)(N)C2CC2)c2cc(Nc3ccc4c(n3)[C@@H](C)[C@H](C)OC4=O)ncc12` (single isomer, unassigned) [Compound 109], the IC50 is 0.15 nM.
As to `CCS(=O)(=O)C[C@H]1C[C@H](Oc2ncc(C(C)(C)N)c3cc(Nc4ccc5c(n4)[C@@H](C)C(C)(C)OC5=O)ncc23)C1` (single isomer, unassigned) [Compound 111], the IC50 worked out at 0.12 nM.
Under `CCC[C@@](C)(N)c1cnc(O[C@H](C)C[C@@H](C)S(C)(=O)=O)c2cnc(Nc3ccc4c(n3)CC(C)(C)OC4=O)cc12` (single isomer, unassigned) [Compound 124] stands 0.26 nM; under `CCC[C@@](C)(N)c1cnc(O[C@H](C)C[C@@H](C)S(C)(=O)=O)c2cnc(Nc3ccc4c(n3)[C@@H](C)[C@H](C)OC4=O)cc12` (single isomer, unassigned) [Compound 125], 0.18 nM; under `CC[C@@](C)(N)c1cnc(O[C@H](C)C[C@@H](C)S(C)(=O)=O)c2cnc(Nc3ccc4c(n3)C(C)(C)[C@H](C)OC4=O)cc12` (single isomer, unassigned) [Compound 130], 0.22 nM.
